The record followed here is patent US20180311364A1, “Protease Triggered Release Of Molecules From Hydrogels” (The Trustees of the University of Pennsylvania, priority 2010, published 2018).

The series can be described thus: Triggered release of ilomastat from HA-aldehyde / HA-peptide-hydrazide hydrogel. The series is classed as physicochemical. How it is done: Ilomastat was ground into a fine powder of uniform microparticles. These microparticles were suspended in the dissolved HA-aldehyde and HA-peptide-hydrazide solutions at 10 μg per 100 μL of polymer solution. At this concentration ilomastat remains a solid particle within the polymer solution. HA-aldehyde and HA-peptide-hydrazide polymers were mixed 1:1 aldehdye:hydrazide to induce crosslinking into a solid gel. The gels were incubated in phosphate buffered saline at 37° C. After 14 days less than 10% of the ilomastat was released from the gels due to hydrophobic interactions of the ilomastat in the microparticles. The gels were then exposed to collagenase 200 U/mL and the gels degraded.

Consider `CNC(=O)[C@H](Cc1c[nH]c2ccccc12)NC(=O)[C@@H](CC(=O)NO)CC(C)C` [ilomastat, Ilomastat], for which the “ilomastat release after gel degradation (HPLC)” value (gels exposed to collagenase 200 U/mL after 14 days in PBS, gels degraded) is on record as “solubilized in the larger volume of the buffer”. Also, under “gels incubated in phosphate buffered saline at 37° C., after 14 days, ilomastat microparticles 10 μg per 100 μL polymer solution”, the “ilomastat released from the gels” value is on record as “less than 10%”.
